Tests used:
[1] = Cytotoxicity assay for C6 cells (CellTiter-Blue); assay type: cell-based; details: rat, C6 glial cells, viability, mean ± SD
Procedure: (§1) A viability assay was performed to evaluate the inhibitory activity of the tested compounds by determining their IC50 values against N. fowleri, using miltefosine as a reference drug. To assess the selectivity of the tested compounds relative to miltefosine, cytotoxic values that reduced the viability of C6 glial cells by 50% were established.
(§2) N. fowleri Carter NF69 strain (ATCC 30215; American Type Culture Collection, Manassas, VA, USA) was used. Amoeba trophozoites were cultured and maintained in Nelson’s medium containing 5% foetal bovine serum (FBS; Gibco, Grand Island, NY, USA) and 1% penicillin/streptomycin (P/S; Gibco, Grand Island, NY, USA) at 37 °C [56]. C6 rat glial cells (C6 cells; ATCC CCL-107) were cultured in Dulbecco’s Modified Eagle’s Medium (DMEM; Gibco, Grand Island, NY, USA) supplemented with 10% FBS (Gibco, Grand Island, NY, USA) and 1% P/S (Gibco, Grand Island, NY, USA) at 37 °C in a humidified incubator under 5% CO2 atmosphere.
The potential cytotoxicity of tested compounds and miltefosine in C6 cells was analysed. The cells were seeded in a 96-well microplate (Thermo Fisher Scientific; 2 × 10^4 cells/well), respectively, and incubated overnight until 80% confluent. Serially diluted tested compounds and miltefosine were treated to the cells as described above. Morphological changes of the cells were observed by microscopic examination. Cell viability was determined using the CellTiter-Blue® Cell viability assay (Promega, […], USA). The cytotoxic concentrations 50 (CC50) of tested compounds and miltefosine were calculated using GraphPad Prism 9.1.0 software (GraphPad Software, San Diego, CA, USA). The […] (SI) was determined by the ratio between CC50 and IC50. Cells treated with 0.1% DMSO, which was confirmed not to alter the morphology of the cells by microscopic examination, were used as controls with 100% cell viability.

[2] = test system: N. fowleri trophozoites; test: Anti-amoebic viability assay (CellTiter-Blue) with microscopic observation; assay type: cell-based, Naegleria fowleri; details: for Selectivity Index: CC50 of C6 glial cell divided by IC50 of inhibition of N. fowleri; for Relative Potency to Miltefosine: IC50 of miltefosine divided by IC50 of compound, N. fowleri; for IC50: Naegleria fowleri, 48 h, N. fowleri trophozoites, viability, mean ± SD of three assays, read-out: IC50 of Inhibition of N. fowleri; for fold increase in potency of anti-amoebic activity relative to corresponding cis-configured derivative: trans vs cis 1,2-restricted derivative with same alkyl chain
Procedure: as §1, §2
N. fowleri trophozoites (5 × 10^4 cells/well) were seeded in a 96-well microplate (Thermo Fisher Scientific, Waltham, MA, USA) in Nelson’s medium and incubated at 37 °C overnight. N. fowleri trophozoites were treated with 2-fold serial dilutions of tested compounds (from 0 to 200 µM) or miltefosine (150 µM) and incubated at 37 °C for 48 h. The viability of the amoebae was determined using the CellTiter-Blue® Cell viability assay (Promega, Madison, WI, USA). Inhibitory concentration 50 (IC50) and IC90 were calculated by the nonlinear regression method using GraphPad Prism 9.1.0 software (GraphPad Software, San Diego, CA, USA). Amoebae treated with 0.1% DMSO were used as a control, representing 100% cell viability. Morphological changes of the amoebae were observed microscopically.

IC50 [2] [µM] | Compound | CC50 [1] [µM] | Selectivity Index [2] | Relative Potency to Miltefosine [2] [fold] | fold increase in potency of anti-amoebic activity relative to corresponding cis-configured derivative [2]
279.4 ± 0.94 | CCCCCCCCCCCCOC[C@@H]1CCC[C@H]1OP(=O)([O-])OCC[N+](C)(C)C [Compound 3a] | > 400 | >1.43 | 0.52 | –
162 ± 1.02 | CCCCCCCCCCCCO[C@H]1CCC[C@H]1COP(=O)([O-])OCC[N+](C)(C)C [Compound 1a] | > 400 | >2.47 | ~0.90 | –
166 ± 68 | CCCCCCCCCCCCCCCCCCCCCCO[C@H]1CCC[C@H]1COP(=O)([O-])OCC[N+](C)(C)C [Compound 1e] | 114 ± 3.2 | 0.69 | 0.88 | –
72.7 ± 2.32 | CCCCCCCCCCCCCCCCCCO[C@H]1CCC[C@H]1COP(=O)([O-])OCC[N+](C)(C)C [Compound 1c] | 158.4 ± 0.71 | 2.18 | 2.01 | –
23.7 ± 0.5 | CCCCCCCCCCCCCCCCCCO[C@@H]1CCC[C@H]1COP(=O)([O-])OCC[N+](C)(C)C [Compound 2b] | 69.71 ± 0.04 | 2.94 | 6.18 | 2.19- to 3.07 fold
19.6 ± 0.44 | CCCCCCCCCCCCCCCCCCCCO[C@@H]1CCC[C@H]1COP(=O)([O-])OCC[N+](C)(C)C [Compound 2c] | 43 ± 8.37 | 2.19 | 7.46 | 2.19- to 3.07 fold
43.6 ± 1.02 | CCCCCCCCCCCCCCCCCCCCO[C@H]1CCC[C@H]1COP(=O)([O-])OCC[N+](C)(C)C [Compound 1d] | 69.49 ± 0.16 | 1.59 | 3.4 | –
39.1 ± 0.6 | CCCCCCCCCCCCCO[C@H]1CCC[C@H]1COP(=O)([O-])OCC[N+](C)(C)C [Compound 1b] | 105 ± 4.76 | 2.69 | 3.74 | –
55.6 ± 3.32 | CCCCCCCCCCCCCCCCCCCCCCO[C@@H]1CCC[C@H]1COP(=O)([O-])OCC[N+](C)(C)C [Compound 2d] | 71.03 ± 0.61 | 1.28 | 2.63 | 2.98 fold
76.3 ± 1.56 | CCCCCCCCCCCCCCCCCCOC[C@@H]1CCC[C@H]1OP(=O)([O-])OCC[N+](C)(C)C [Compound 3c] | 58.5 ± 2.08 | 0.77 | 1.92 | –

From paper PMC12298883, “Discovery of Cyclopentane-Based Phospholipids as Miltefosine Analogs with Superior Potency and Enhanced Selectivity Against Naegleria fowleri” (Pharmaceuticals, 2025)
